Measured values as given in patent publication US11752193B2, “Administering methylation-controlled J protein (MCJ) SIRNA to a kidney cell” (University of Vermont and State Agricultural College, priority 2012, dated 2023).

Tested on: MCF7/siMCJ cells
Assay: Intracellular ATP levels in MCF7/siMCJ cells after incubation with rotenone
Type: cell-based, human
Conditions: rotenone 10 μM, 4 h, versus medium (FIG. 3B)
Protocol: CD8 T cells and CD4 T cells were purified from spleen and lymph nodes by negative selection as previously described (Auphan et al., 1998 J Immunol 160, 4810-4821; Conze et al., 2002 J Exp Med 195, 811-823), and by positive selection using the MACS system as recommended by the manufacturer (Miltenyi Biotec, Cambridge, Mass.). Purified T cells were stimulated with plate-bound anti-CD3 (2C11) (5 μg/ml) and soluble anti-CD28 (1 μg/ml) (BD Biosciences, Sparks, Md.) mAbs. Proliferation assays were performed using purified CD8 T cells (10^5 cells/well) activated with anti-CD3 and anti-CD28 and labeled with [^3H]-thymidine as previously described (Conze et al., 2002 J Exp Med 195, 811-823). MCF7, MCF7/siMCJ, and 293T cell lines were maintained as previously described (Hatle et al., 2007 Mol Cell Biol 27, 2952-2966). Rotenone (used at 10 μM) was purchased from Sigma Aldrich (St. Louis, Mo.). Transfection of 293T cells by calcium phosphate was performed as previously described (Hatle et al., 2007 Mol Cell Biol 27, 2952-2966).
The levels of intracellular ATP were determined using […] cells (CD8 T cells, MCF7 cells, 293T cells) per sample and the ATPlite® Luminescence ATP Detection Assay System (PerkinElmer®, Waltham, Mass.) following the recommendations from the manufacturer and a TD-20/20 luminometer (Turner Biosystems, Promega®, Madison, Wis.). […]

C=C(C)[C@H]1Cc2c(ccc3c2O[C@@H]2COc4cc(OC)c(OC)cc4[C@@H]2C3=O)O1 [rotenone, Rotenone]
levels of ATP: abrogated the levels of ATP
